Data from publication PMC3479019, “Identification and functional analysis of gene cluster involvement in biosynthesis of the cyclic lipopeptide antibiotic pelgipeptin produced by Paenibacillus elgii” (BMC Microbiology, 2012).

Key:
Experiment in all cases: amino acid adenylation, pyrophosphate release, inorganic pyrophosphatase / malachite green, […] nm
Type in all cases: biochemical
Details in all cases: 5 mM ATP, 10 mM MgCl2, 6 mM amino acid, 100 mM NaCl, 50 mM Tris-HCl pH 7.5, 25 °C
PlpD A1 = molecular target: T1, PlpD A1 (Paenibacillus elgii, UniProt I1Z6A2)
T1 construct: pET28a, E. coli BL21(DE3), Ni-purified, His-tag (C-terminal by primers, inferred); borders by primers plpD-A1-F/R, N-term MENILT, C-term GAEYE then LE-tag (translated from primers)
T1 sequence (I1Z6A2 446-978): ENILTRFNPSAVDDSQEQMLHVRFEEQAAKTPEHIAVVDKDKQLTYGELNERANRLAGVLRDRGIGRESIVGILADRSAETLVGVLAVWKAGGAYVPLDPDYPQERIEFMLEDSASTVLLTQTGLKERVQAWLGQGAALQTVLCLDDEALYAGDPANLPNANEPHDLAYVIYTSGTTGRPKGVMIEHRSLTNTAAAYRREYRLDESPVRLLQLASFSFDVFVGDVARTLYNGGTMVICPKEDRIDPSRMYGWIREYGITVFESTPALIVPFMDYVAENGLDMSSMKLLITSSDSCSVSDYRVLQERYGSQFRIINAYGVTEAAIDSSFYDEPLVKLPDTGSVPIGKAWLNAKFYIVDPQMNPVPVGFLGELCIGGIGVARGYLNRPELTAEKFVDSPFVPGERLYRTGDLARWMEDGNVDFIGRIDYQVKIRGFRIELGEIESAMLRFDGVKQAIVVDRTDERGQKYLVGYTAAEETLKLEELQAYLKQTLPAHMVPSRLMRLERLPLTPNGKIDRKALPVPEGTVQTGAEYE

PlpE A3 = molecular target: T2, PlpE A3 (Paenibacillus elgii, UniProt I1Z6A3)
T2 construct: pET28a, E. coli BL21(DE3), Ni-purified, His-tag (C-terminal by primers, inferred); borders by primers plpE-A3-F/R, N-term MAAEQT, C-term ADYVA then KL-tag (translated from primers)
T2 sequence (I1Z6A3 2324-2843): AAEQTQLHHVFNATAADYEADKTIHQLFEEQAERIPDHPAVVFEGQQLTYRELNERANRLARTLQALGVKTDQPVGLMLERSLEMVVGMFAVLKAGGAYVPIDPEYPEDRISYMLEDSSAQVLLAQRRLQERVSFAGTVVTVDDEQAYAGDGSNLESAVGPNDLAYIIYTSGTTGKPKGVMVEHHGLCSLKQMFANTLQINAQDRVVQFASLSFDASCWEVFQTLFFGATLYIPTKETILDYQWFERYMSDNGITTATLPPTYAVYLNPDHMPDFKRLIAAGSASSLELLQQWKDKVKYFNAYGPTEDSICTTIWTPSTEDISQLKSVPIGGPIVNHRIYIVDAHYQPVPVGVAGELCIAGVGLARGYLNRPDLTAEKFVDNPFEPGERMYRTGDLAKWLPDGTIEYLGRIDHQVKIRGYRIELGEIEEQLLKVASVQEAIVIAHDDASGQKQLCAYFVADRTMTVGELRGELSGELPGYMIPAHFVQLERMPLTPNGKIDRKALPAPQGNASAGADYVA

PlpF A1 = molecular target: T3, PlpF A1 (Paenibacillus elgii, UniProt I1Z6A4)
T3 construct: pET28a, E. coli BL21(DE3), Ni-purified, His-tag (N-terminal by primers, stop codon in reverse primer, inferred); borders by primers plpF-A1-F/R, N-term (AS)LSDSE, C-term TGLE (translated from primers)
T3 sequence (I1Z6A4 entry or part of it): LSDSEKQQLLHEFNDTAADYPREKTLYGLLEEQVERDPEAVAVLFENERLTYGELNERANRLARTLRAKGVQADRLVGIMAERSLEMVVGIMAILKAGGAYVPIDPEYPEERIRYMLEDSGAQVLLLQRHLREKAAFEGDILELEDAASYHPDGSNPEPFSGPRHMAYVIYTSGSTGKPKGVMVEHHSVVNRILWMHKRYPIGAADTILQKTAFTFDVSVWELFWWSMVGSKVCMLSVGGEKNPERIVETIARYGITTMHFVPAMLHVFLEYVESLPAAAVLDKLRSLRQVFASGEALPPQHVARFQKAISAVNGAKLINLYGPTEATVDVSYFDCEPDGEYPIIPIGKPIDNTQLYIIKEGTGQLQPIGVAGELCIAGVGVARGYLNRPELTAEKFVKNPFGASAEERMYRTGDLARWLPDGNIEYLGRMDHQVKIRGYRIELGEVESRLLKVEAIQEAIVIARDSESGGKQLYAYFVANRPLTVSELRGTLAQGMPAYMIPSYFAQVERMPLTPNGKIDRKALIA

With `NCC[C@H](N)C(=O)O` [L-Dab] the “amino acid adenylation, pyrophosphate release, inorganic pyrophosphatase / malac” value (PlpD A1) was “PlpD A1, PlpE A3, and Plp F A1 clearly exhibited the highest activity for L-Dab”.
With `N[C@@H](Cc1ccccc1)C(=O)O` [L-Phe] the “amino acid adenylation, pyrophosphate release, inorganic pyrophosphatase / malac” value (PlpE A3) was “clearly exhibited the highest activity for L-Dab, L-Phe, and L-Ser, respectively”.
For `N[C@@H](CO)C(=O)O` [L-Ser], the “amino acid adenylation, pyrophosphate release, inorganic pyrophosphatase / malac” value (PlpF A1) was “clearly exhibited the highest activity for L-Dab, L-Phe, and L-Ser, respectively”.
